Assay in all cases: Antibiotic MIC (CLSI microdilution or gradient strips)
Common to all, as to assay type: cell-based, Acinetobacter baumannii
On the technique in general: Dilution methods test growth across graded concentrations, often in twofold steps.

In one assay the test system is CRAB strain AC9. Conditions: for MIC: Acinetobacter baumannii. The procedure: (§1) All minimum inhibitory concentration (MIC) determinations for antibiotics were performed by the standard microdilution method in 96-well microplate (Thermo-Scientific, Roskilde, Denmark) or by gradient test strips (Liofilchem, Italy) according to the Clinical and Laboratory Standards Institute guidelines. Escherichia coli ATCC 25922 was used as control.

In the next assay the test system is CRAB strain AC46. Conditions: for MIC: Acinetobacter baumannii. On the procedure: as §1
In assay [1] the test system is A. baumannii ATCC 19606 type strain. Conditions: for MIC: Acinetobacter baumannii, ATCC19606. On the procedure:
as §1

The test system of a further assay is CRAB strain AC8. Conditions: for MIC: Acinetobacter baumannii. On the procedure: as §1
The next assay has as its system CRAB strain AC44. As to conditions: for MIC: Acinetobacter baumannii, AC44, urine isolate. The procedure: as §1
A further assay relates to CRAB strain AC3. Conditions: for MIC: Acinetobacter baumannii, AC3, sputum isolate. On the procedure: as §1
A further assay relates to CRAB strain SSI1104. As to conditions: for MIC: Acinetobacter baumannii, SSI1104. The procedure:
as §1

A further assay has as its system CRAB strain AC2. As to conditions: for MIC: Acinetobacter baumannii. The procedure: as §1
For a further assay, the system named is CRAB strain AC5. Conditions: for MIC: Acinetobacter baumannii, AC5, urine isolate. On the procedure: as §1
Another assay relates to CRAB strain AC1. Conditions: for MIC: Acinetobacter baumannii, AC1, wound isolate. The procedure: as §1
The test system of the next assay is CRAB strain AC4. As to conditions: for MIC: Acinetobacter baumannii. The procedure:
as §1

For another assay, the system named is CRAB strain AC6. Conditions: for MIC: Acinetobacter baumannii. The procedure:
(§2) All minimum inhibitory concentration (MIC) determinations for antibiotics were performed by the standard microdilution method in 96-well microplate (Thermo-Scientific, Roskilde, Denmark) or by gradient test strips (Liofilchem, Italy) according to the Clinical and Laboratory Standards Institute guidelines.

For another assay, the system named is CRAB strain AC7. As to conditions: for MIC: Acinetobacter baumannii. On the procedure:
as §2

[2] abbreviates: AC9, CSF isolate, CLSI, read-out: MIC, AC9.
The mark [3] stands for this setting: AC46, sputum isolate, CLSI, read-out: MIC, AC46.
Setting [4] is: AC8, sputum isolate, CLSI, read-out: MIC, AC8.
Where [5] appears, read: AC2, wound isolate, CLSI, read-out: MIC, AC2.
[6] abbreviates: AC4, trachea isolate, CLSI, read-out: MIC, AC4.
Where [7] appears, read: AC6, blood isolate, CLSI, read-out: MIC, AC6.
Setting [8] is: AC7, blood isolate, CLSI, read-out: MIC, AC7.

Data on five compounds can be found in article PMC8071358, “Targeting of the Essential acpP, ftsZ, and rne Genes in Carbapenem-Resistant Acinetobacter baumannii by Antisense PNA Precision Antibacterials” (Biomedicines, 2021).

Converted amounts (≈) assume the structure as drawn. Like-named read-outs stand apart in the source and are kept apart here.

Turning to `CN(C)[C@@H]1C(O)=C(C(N)=O)C(=O)[C@@]2(O)C(O)=C3C(=O)c4c(O)cccc4[C@@](C)(O)[C@H]3C[C@@H]12` [Tetracycline], the MIC was 32 µg/mL (≈ 72 µM) in the assay with CRAB strain AC9 (setting [2]); 128 µg/mL (≈ 288 µM) with CRAB strain AC46 (setting [3]); 1 µg/mL (≈ 2.25 µM) in assay [1]; 32 µg/mL (≈ 72 µM) in the assay on CRAB strain AC8 (setting [4]); 256 µg/mL (≈ 576 µM) with CRAB strain AC44.

As for `CC(C)(O/N=C(\C(=O)N[C@@H]1C(=O)N2C(C(=O)[O-])=C(C[n+]3ccccc3)CS[C@H]12)c1csc(N)n1)C(=O)O` [Ceftazidime], the MIC in the assay on CRAB strain AC3 amounted to 64 µg/mL (≈ 117 µM); in the assay on CRAB strain AC9 (setting [2]) it was 32 µg/mL (≈ 58.5 µM); in the assay on CRAB strain AC46 (setting [3]), 128 µg/mL (≈ 234 µM); in [1], 8 µg/mL (≈ 14.6 µM); with CRAB strain AC8 (setting [4]) it was 64 µg/mL (≈ 117 µM); in the assay with CRAB strain AC44, 256 µg/mL (≈ 468 µM). Further, the minimum inhibitory concentration (MIC) is over 8 µg/mL against CRAB strain SSI1104; 64 µg/mL (≈ 117 µM) in the assay on CRAB strain AC2 (setting [5]); 32 µg/mL (≈ 58.5 µM) against CRAB strain AC5; 64 µg/mL (≈ 117 µM) in the assay with CRAB strain AC1; 64 µg/mL (≈ 117 µM) in the assay on CRAB strain AC4 (setting [6]); 32 µg/mL (≈ 58.5 µM) in the assay on CRAB strain AC6 (setting [7]). Moreover, in the assay on CRAB strain AC7 (setting [8]), the MIC is 64 µg/mL (≈ 117 µM).

As to `C[C@@H](O)[C@H]1C(=O)N2C(C(=O)O)=C(S[C@@H]3CN[C@H](C(=O)N(C)C)C3)[C@H](C)[C@H]12` [Meropenem], the MIC is 4 µg/mL (≈ 10.4 µM) against CRAB strain AC3; 16 µg/mL (≈ 41.7 µM) with CRAB strain AC9 (setting [2]); 16 µg/mL (≈ 41.7 µM) in the assay with CRAB strain AC46 (setting [3]); 1 µg/mL (≈ 2.61 µM) in assay [1]; 16 µg/mL (≈ 41.7 µM) in the assay with CRAB strain AC8 (setting [4]); 16 µg/mL (≈ 41.7 µM) against CRAB strain AC44. Also, the MIC against CRAB strain SSI1104 is over 16 µg/mL; in the assay on CRAB strain AC2 (setting [5]), 16 µg/mL (≈ 41.7 µM); against CRAB strain AC5 it was 16 µg/mL (≈ 41.7 µM); in the assay with CRAB strain AC1, 4 µg/mL (≈ 10.4 µM); in the assay on CRAB strain AC4 (setting [6]), 16 µg/mL (≈ 41.7 µM); in the assay with CRAB strain AC6 (setting [7]) it was 16 µg/mL (≈ 41.7 µM). For the same compound, the minimal inhibitory concentration (MIC) in the assay with CRAB strain AC7 (setting [8]) was determined as 16 µg/mL (≈ 41.7 µM).

With Colistin, the “MIC, AC3” value with CRAB strain AC3 (sputum isolate) is recorded as 1 µg/mL. The “MIC, AC9” value in the assay on CRAB strain AC9 (CSF isolate, CLSI) turned out to be 1 µg/mL. The “MIC, AC46” value with CRAB strain AC46 (sputum isolate, CLSI) was found to be 1 µg/mL. Further, the “MIC, ATCC 19606” value in [1] turned out to be 1 µg/mL. Further, the “MIC, AC8” value with CRAB strain AC8 (sputum isolate, CLSI) worked out at 1 µg/mL. In the assay on CRAB strain AC44 (urine isolate), the “MIC, AC44” value is 0.5 µg/mL. Further, in the assay on CRAB strain SSI1104, the “MIC, SSI 1104” value was 1 µg/mL. Moreover, in the assay with CRAB strain AC2 (wound isolate, CLSI), the “MIC, AC2” value is on record as 1 µg/mL. In the assay on CRAB strain AC5 (urine isolate), the “MIC, AC5” value is reported as 1 µg/mL. Also, the “MIC, AC1” value with CRAB strain AC1 (wound isolate) worked out at 1 µg/mL. The “MIC, AC4” value in the assay on CRAB strain AC4 (trachea isolate, CLSI) is reported as 1 µg/mL. Further, the “MIC, AC6” value against CRAB strain AC6 (blood isolate, CLSI) is on record as 1 µg/mL. Moreover, the “MIC, AC7” value with CRAB strain AC7 (blood isolate, CLSI) is 1 µg/mL.

Regarding `CNC(C)C1CCC(N)C(OC2C(N)CC(N)C(OC3OCC(C)(O)C(NC)C3O)C2O)O1` (stereo not shown) [Gentamicin], the MIC in the assay on CRAB strain AC3 worked out at 8 µg/mL (≈ 16.8 µM); with CRAB strain AC9 (AC9, read-out: MIC, AC9), 16 µg/mL (≈ 33.5 µM); in the assay on CRAB strain AC46 (AC46, read-out: MIC, AC46), 16 µg/mL (≈ 33.5 µM); in assay [1], 4 µg/mL (≈ 8.38 µM); in the assay on CRAB strain AC8 (AC8, read-out: MIC, AC8), 16 µg/mL (≈ 33.5 µM); against CRAB strain SSI1104, 32 µg/mL (≈ 67 µM). For the same compound, the MIC was 16 µg/mL (≈ 33.5 µM) with CRAB strain AC2 (AC2, read-out: MIC, AC2); 8 µg/mL (≈ 16.8 µM) against CRAB strain AC1; 16 µg/mL (≈ 33.5 µM) in the assay with CRAB strain AC4 (AC4, read-out: MIC, AC4); 16 µg/mL (≈ 33.5 µM) with CRAB strain AC6 (AC6, read-out: MIC, AC6); 16 µg/mL (≈ 33.5 µM) with CRAB strain AC7 (AC7, read-out: MIC, AC7).

One may read the MIC as the smallest concentration in the dilution series that meets the test's criterion for growth inhibition.
